According to publication PMC7933434, “Entropy-driven binding of gut bacterial β-glucuronidase inhibitors ameliorates irinotecan-induced toxicity” (Communications Biology, 2021):
Values joined by “and” are separate entries in the source; they are usually repeats but may differ in a detail not shown here. Identical values can stand only once.

Columns and labels:
[1] = molecular target: T1, HsGUS (human GUS) (Homo sapiens, UniProt P08236); experiment: GUS inhibition assay, hydrolysis of 4-methylumbelliferyl-β-glucuronide, HsGUS; format: biochemical; parameters: GUS activity (hydrolysis rate of MUG): unit not given here
T1 construct: HsGUS was prepared as described[37]; made in house
T1 sequence (P08236 23-651): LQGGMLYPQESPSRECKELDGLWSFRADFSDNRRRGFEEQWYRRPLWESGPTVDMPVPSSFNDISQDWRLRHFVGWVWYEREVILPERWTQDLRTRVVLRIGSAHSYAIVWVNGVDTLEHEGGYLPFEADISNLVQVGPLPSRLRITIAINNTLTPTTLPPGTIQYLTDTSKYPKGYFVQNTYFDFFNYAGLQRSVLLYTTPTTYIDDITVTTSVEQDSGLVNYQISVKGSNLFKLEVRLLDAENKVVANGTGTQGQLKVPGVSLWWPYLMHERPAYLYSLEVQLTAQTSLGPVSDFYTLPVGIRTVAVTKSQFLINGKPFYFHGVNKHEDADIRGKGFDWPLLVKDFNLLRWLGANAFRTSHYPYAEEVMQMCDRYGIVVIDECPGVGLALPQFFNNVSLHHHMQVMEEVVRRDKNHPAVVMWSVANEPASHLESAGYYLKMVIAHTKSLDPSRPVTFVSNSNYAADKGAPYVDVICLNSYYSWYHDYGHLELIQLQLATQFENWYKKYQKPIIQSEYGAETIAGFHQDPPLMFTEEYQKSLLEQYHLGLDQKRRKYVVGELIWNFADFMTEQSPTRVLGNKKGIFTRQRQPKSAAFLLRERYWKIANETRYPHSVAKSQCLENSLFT

[2] = molecular target: EcGUS (Escherichia coli GUS) (Escherichia coli, UniProt P05804); experiment: biochemical
Sequence of EcGUS (Escherichia coli GUS) (P05804 whole entry): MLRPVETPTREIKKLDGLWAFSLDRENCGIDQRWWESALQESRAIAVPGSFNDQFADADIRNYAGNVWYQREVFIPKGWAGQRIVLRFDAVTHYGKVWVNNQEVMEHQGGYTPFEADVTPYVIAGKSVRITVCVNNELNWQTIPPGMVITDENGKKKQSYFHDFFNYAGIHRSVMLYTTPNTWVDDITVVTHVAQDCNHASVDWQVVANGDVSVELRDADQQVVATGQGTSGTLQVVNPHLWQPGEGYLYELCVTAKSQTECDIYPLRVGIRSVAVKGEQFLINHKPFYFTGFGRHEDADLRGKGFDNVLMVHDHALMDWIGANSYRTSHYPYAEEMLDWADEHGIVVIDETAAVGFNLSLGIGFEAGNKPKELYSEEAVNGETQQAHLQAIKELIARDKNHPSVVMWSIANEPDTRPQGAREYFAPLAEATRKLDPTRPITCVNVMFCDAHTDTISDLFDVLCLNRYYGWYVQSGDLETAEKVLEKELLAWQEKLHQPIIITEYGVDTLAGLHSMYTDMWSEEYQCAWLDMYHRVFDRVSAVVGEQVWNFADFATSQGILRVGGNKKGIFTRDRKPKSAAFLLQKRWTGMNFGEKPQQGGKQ

[3] = molecular target: LgGUS (Lactobacillus gasseri GUS) (Lactobacillus gasseri, UniProt Q9AHJ8); experiment: GUS inhibition assay, hydrolysis of 4-methylumbelliferyl-β-glucuronide, LgGUS; format: biochemical; parameters: GUS activity (hydrolysis rate of MUG) / 1/v: unit not given here
Sequence of LgGUS (Lactobacillus gasseri GUS) (Q9AHJ8 1-598): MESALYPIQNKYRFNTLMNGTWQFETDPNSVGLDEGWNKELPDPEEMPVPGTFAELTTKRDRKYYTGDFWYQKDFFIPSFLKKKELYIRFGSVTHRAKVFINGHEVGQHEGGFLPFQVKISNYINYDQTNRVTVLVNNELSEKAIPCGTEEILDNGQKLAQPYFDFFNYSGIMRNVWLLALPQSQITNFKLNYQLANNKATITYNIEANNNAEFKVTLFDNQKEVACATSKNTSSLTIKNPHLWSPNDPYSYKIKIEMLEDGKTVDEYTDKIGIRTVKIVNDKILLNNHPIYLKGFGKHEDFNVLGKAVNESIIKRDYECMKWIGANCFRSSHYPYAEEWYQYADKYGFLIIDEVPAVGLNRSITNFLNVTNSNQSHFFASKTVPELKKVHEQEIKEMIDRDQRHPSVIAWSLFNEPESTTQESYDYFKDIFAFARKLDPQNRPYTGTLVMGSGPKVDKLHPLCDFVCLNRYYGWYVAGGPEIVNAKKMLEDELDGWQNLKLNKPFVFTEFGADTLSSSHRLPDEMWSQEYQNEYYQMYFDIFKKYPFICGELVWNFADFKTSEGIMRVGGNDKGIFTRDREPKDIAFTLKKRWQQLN

[4] = [Inhibitor 3] = 0.5 μM, [MUG] 0.0375 mM
[5] = [Inhibitor 3] = 0.5 μM, [MUG] 0.075 mM
[6] = [Inhibitor 3] = 0.5 μM, [MUG] 0.15 mM
[7] = [Inhibitor 3] = 0.5 μM, [MUG] 0.3 mM
[8] = [Inhibitor 3] = 1 μM, [MUG] 0.0375 mM

SMILES: CCCCCC[C@@H]1NC[C@@H](O)[C@H](O)[C@H]1C(=O)O [Inhibitor 3, C6-hexyl UIFG]
- Ki ([1]; HsGUS, 50 mM sodium acetate pH 4.5, 37 °C): 5300 ± 900 nM
- GUS activity (hydrolysis rate of MUG) ([1]; [Inhibitor 3] =0.15625 μM, [MUG] 0.1 mM): 771.278 and 806.238
- GUS activity (hydrolysis rate of MUG) ([1]; [Inhibitor 3] =0.15625 μM, [MUG] 0.2 mM): 1372.81 and 1460.04
- GUS activity (hydrolysis rate of MUG) ([1]; [Inhibitor 3] =0.15625 μM, [MUG] 0.4 mM): 2346.7 and 2406.16
- GUS activity (hydrolysis rate of MUG) ([1]; [Inhibitor 3] =0.15625 μM, [MUG] 0.6 mM): 2899.99 and 3077.74
- GUS activity (hydrolysis rate of MUG) ([1]; [Inhibitor 3] =0.15625 μM, [MUG] 0.8 mM): 3398.11 and 3693.06
- GUS activity (hydrolysis rate of MUG) ([1]; [Inhibitor 3] =0.15625 μM, [MUG] 1.2 mM): 4234.64 and 3962.7
- GUS activity (hydrolysis rate of MUG) ([1]; [Inhibitor 3] =0.15625 μM, [MUG] 1.6 mM): 4964.29 and 4569.67
- GUS activity (hydrolysis rate of MUG) ([1]; [Inhibitor 3] =0.15625 μM, [MUG] 2 mM): 5606.01 and 4919.37
- GUS activity (hydrolysis rate of MUG) ([1]; [Inhibitor 3] =0.3125 μM, [MUG] 0.1 mM): 857.043 and 831.938
- GUS activity (hydrolysis rate of MUG) ([1]; [Inhibitor 3] =0.3125 μM, [MUG] 0.2 mM): 1433.02 and 1411.42
- GUS activity (hydrolysis rate of MUG) ([1]; [Inhibitor 3] =0.3125 μM, [MUG] 0.4 mM): 2271.61 and 2263.8
- GUS activity (hydrolysis rate of MUG) ([1]; [Inhibitor 3] =0.3125 μM, [MUG] 0.6 mM): 2953.53 and 2923.55
- GUS activity (hydrolysis rate of MUG) ([1]; [Inhibitor 3] =0.3125 μM, [MUG] 0.8 mM): 3510.33 and 3469.47
- GUS activity (hydrolysis rate of MUG) ([1]; [Inhibitor 3] =0.3125 μM, [MUG] 1.2 mM): 4268.51 and 4308.7
- GUS activity (hydrolysis rate of MUG) ([1]; [Inhibitor 3] =0.3125 μM, [MUG] 1.6 mM): 4927.41 and 4670.47
- GUS activity (hydrolysis rate of MUG) ([1]; [Inhibitor 3] =0.3125 μM, [MUG] 2 mM): 5186.78 and 5296.26
- GUS activity (hydrolysis rate of MUG) ([1]; [Inhibitor 3] =0.625 μM, [MUG] 0.1 mM): 778.258 and 858.783
- GUS activity (hydrolysis rate of MUG) ([1]; [Inhibitor 3] =0.625 μM, [MUG] 0.2 mM): 1379.09 and 1422.22
- GUS activity (hydrolysis rate of MUG) ([1]; [Inhibitor 3] =0.625 μM, [MUG] 0.4 mM): 2137.64 and 2310.12
- GUS activity (hydrolysis rate of MUG) ([1]; [Inhibitor 3] =0.625 μM, [MUG] 0.6 mM): 2842.46 and 2976.65
- GUS activity (hydrolysis rate of MUG) ([1]; [Inhibitor 3] =0.625 μM, [MUG] 0.8 mM): 3348.75 and 3351.68
- GUS activity (hydrolysis rate of MUG) ([1]; [Inhibitor 3] =0.625 μM, [MUG] 1.2 mM): 4293.66 and 3890.63
- GUS activity (hydrolysis rate of MUG) ([1]; [Inhibitor 3] =0.625 μM, [MUG] 1.6 mM): 4573.95 and 4600.88
- GUS activity (hydrolysis rate of MUG) ([1]; [Inhibitor 3] =0.625 μM, [MUG] 2 mM): 5372.6 and 4990.92
- GUS activity (hydrolysis rate of MUG) ([1]; [Inhibitor 3] =1.25 μM, [MUG] 0.1 mM): 717.04 and 716.519
- GUS activity (hydrolysis rate of MUG) ([1]; [Inhibitor 3] =1.25 μM, [MUG] 0.2 mM): 1240.56 and 1222.88
- GUS activity (hydrolysis rate of MUG) ([1]; [Inhibitor 3] =1.25 μM, [MUG] 0.4 mM): 2023.29 and 2076.53
- GUS activity (hydrolysis rate of MUG) ([1]; [Inhibitor 3] =1.25 μM, [MUG] 0.6 mM): 2757.57 and 2739.69
- GUS activity (hydrolysis rate of MUG) ([1]; [Inhibitor 3] =1.25 μM, [MUG] 0.8 mM): 3062.28 and 3123.61
- GUS activity (hydrolysis rate of MUG) ([1]; [Inhibitor 3] =1.25 μM, [MUG] 1.2 mM): 3822.55 and 3852.43
- GUS activity (hydrolysis rate of MUG) ([1]; [Inhibitor 3] =1.25 μM, [MUG] 1.6 mM): 4324.26 and 4371.34
- GUS activity (hydrolysis rate of MUG) ([1]; [Inhibitor 3] =1.25 μM, [MUG] 2 mM): 5149.01 and 5020.2
- GUS activity (hydrolysis rate of MUG) ([1]; [Inhibitor 3] =2.5 μM, [MUG] 0.1 mM): 605.275 and 587.992
- GUS activity (hydrolysis rate of MUG) ([1]; [Inhibitor 3] =2.5 μM, [MUG] 0.2 mM): 1017.03 and 1026.81
- GUS activity (hydrolysis rate of MUG) ([1]; [Inhibitor 3] =2.5 μM, [MUG] 0.4 mM): 1798.51 and 1698.98
- GUS activity (hydrolysis rate of MUG) ([1]; [Inhibitor 3] =2.5 μM, [MUG] 0.6 mM): 2384.66 and 2417.17
- GUS activity (hydrolysis rate of MUG) ([1]; [Inhibitor 3] =2.5 μM, [MUG] 0.8 mM): 2879.78 and 2802.26
- GUS activity (hydrolysis rate of MUG) ([1]; [Inhibitor 3] =2.5 μM, [MUG] 1.2 mM): 3545.79 and 3649.82
- GUS activity (hydrolysis rate of MUG) ([1]; [Inhibitor 3] =2.5 μM, [MUG] 1.6 mM): 4144.07 and 4075.98
- GUS activity (hydrolysis rate of MUG) ([1]; [Inhibitor 3] =2.5 μM, [MUG] 2 mM): 4744.38 and 4849.33
- GUS activity (hydrolysis rate of MUG) ([1]; [Inhibitor 3] =3.75 μM, [MUG] 0.1 mM): 572.514 and 563.082
- GUS activity (hydrolysis rate of MUG) ([1]; [Inhibitor 3] =3.75 μM, [MUG] 0.2 mM): 956.564 and 935.374
- GUS activity (hydrolysis rate of MUG) ([1]; [Inhibitor 3] =3.75 μM, [MUG] 0.4 mM): 1708.56 and 1611.49
- GUS activity (hydrolysis rate of MUG) ([1]; [Inhibitor 3] =3.75 μM, [MUG] 0.6 mM): 2310.6 and 2247.59
- GUS activity (hydrolysis rate of MUG) ([1]; [Inhibitor 3] =3.75 μM, [MUG] 0.8 mM): 2878.65 and 2643.42
- GUS activity (hydrolysis rate of MUG) ([1]; [Inhibitor 3] =3.75 μM, [MUG] 1.2 mM): 3484.96 and 3524
- GUS activity (hydrolysis rate of MUG) ([1]; [Inhibitor 3] =3.75 μM, [MUG] 1.6 mM): 3945.8 and 4134.14
- GUS activity (hydrolysis rate of MUG) ([1]; [Inhibitor 3] =3.75 μM, [MUG] 2 mM): 4453.48 and 4566.78
- Ki ([2]; 50 mM HEPES pH 7.5, 37 °C): 0.003 ± 0.0006 µM
- Ki ([2]; source data of Table 1, from plot of apparent Km against [inhibitor] (μM)): 0.00316 µM
- Ki ([3]; LgGUS, 50 mM sodium acetate pH 4.5, 37 °C): 860 ± 180 nM
- 1/v [3, 4]: 0.401 and 0.3673 and 0.39
- GUS activity (hydrolysis rate of MUG) [3, 4]: 3104.19 and 3385.21 and 3190.6
- 1/v [3, 5]: 0.256 and 0.2525 and 0.2536
- GUS activity (hydrolysis rate of MUG) [3, 5]: 4839.61 and 4906.13 and 4884.95
- 1/v [3, 6]: 0.1953 and 0.1691 and 0.1949
- GUS activity (hydrolysis rate of MUG) [3, 6]: 6330.06 and 7304.48 and 6344.76
- 1/v [3, 7]: 0.1452 and 0.1349 and 0.1522
- GUS activity (hydrolysis rate of MUG) [3, 7]: 8498.3 and 9149.25 and 8113.44
- 1/v [3, 8]: 0.5803 and 0.4953 and 0.5757
- GUS activity (hydrolysis rate of MUG) [3, 8]: 2157.49 and 2520.77 and 2174.43
